# Data as given in paper PMC10997755, “Discovery of a small-molecule inhibitor that traps Polθ on DNA and synergizes with PARP inhibitors” (Nature Communications, 2024).
# Several values for one entry are separate records, joined by “and”; a condition that tells them apart may be missing. Equal entries are not always repeated. Entries after “also recorded” stand apart in the source; their conditions may differ.
# Tests used:
# [1] = biological target: T1, recombinant human full-length Polθ (Fl-Polθ) (Homo sapiens, UniProt O75417); assay: Fl-Polθ DNA/DNA primer extension; assay type: biochemical; conditions: 0.15-12 µM, gel
# T1 construct: recombinant human full-length Polθ (Fl-Polθ); made in house
# Polθ-pol on DNA/DNA = biological target: T2, Polθ-pol on DNA/DNA (Homo sapiens, UniProt O75417); assay: Relative rate of ddCMP addition on DNA/DNA; assay type: biochemical; conditions: for Average % Extension (Single nt) / % Extension (Single nt): DNA template, 2uM RTX-161; for Average % Extension (Single nt): average of 3 trials; for % Extension (Single nt): single trials 1-3
# T2 construct: purified recombinant human Polθ-pol (comprising amino acid residues 1792–2590); made in house
# T2 sequence (O75417 1792-2590): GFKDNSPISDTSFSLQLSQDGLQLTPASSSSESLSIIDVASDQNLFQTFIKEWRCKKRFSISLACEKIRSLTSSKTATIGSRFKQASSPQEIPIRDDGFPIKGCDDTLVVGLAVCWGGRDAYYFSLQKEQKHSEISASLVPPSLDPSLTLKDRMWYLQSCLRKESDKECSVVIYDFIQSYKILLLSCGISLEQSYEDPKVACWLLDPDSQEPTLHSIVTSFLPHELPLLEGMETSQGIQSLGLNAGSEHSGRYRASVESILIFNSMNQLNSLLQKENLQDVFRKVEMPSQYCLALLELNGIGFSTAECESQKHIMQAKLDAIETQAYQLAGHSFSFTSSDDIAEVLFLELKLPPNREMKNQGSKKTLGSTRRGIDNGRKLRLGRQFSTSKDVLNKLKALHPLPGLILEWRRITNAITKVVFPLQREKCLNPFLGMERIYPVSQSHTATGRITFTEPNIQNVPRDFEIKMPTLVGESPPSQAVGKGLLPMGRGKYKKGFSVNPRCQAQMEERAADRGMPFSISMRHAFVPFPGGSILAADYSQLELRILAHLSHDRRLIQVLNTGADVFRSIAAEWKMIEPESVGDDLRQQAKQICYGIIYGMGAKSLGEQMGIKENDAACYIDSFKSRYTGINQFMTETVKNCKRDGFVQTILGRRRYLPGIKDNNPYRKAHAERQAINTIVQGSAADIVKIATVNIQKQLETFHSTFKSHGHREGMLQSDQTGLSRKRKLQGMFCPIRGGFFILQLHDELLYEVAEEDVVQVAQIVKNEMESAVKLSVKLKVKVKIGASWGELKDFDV
# Protocol: Relative rate of Polθ-pol dAMP addition. The relative rates of dAMP incorporation by Polq-pol in the presence of DMSO or MC160385 with various concentrations of dATP were measured using the following primer extension assay in vitro. 2 nM or Polθ-pol was incubated with 5’ ^32P-γ-ATP labeled 100 nM primer-template (RP469D/RP486) in 1X buffer (25 mM TrisHCl pH 7.8, 0.01% NP40, 10% glycerol, 1 mM DTT, 10 mM MgCl2, 0.1 mg/ml BSA) at room temp. 2.5% DMSO, 7.5 nM or 12 nM of MC160385 was added. Reactions were than initiated by the addition of 20, 50, 100, 200, or 300 μM dATP at room temp. Aliquots of the reactions were removed and terminated by the addition of 50 mM EDTA at 3, 3.5, 4 and 5 min after the reaction was initiated. Radio-labeled DNA was then resolved via denaturing 20% PAGE and visualized by Typhoon PhosphorImager (GE Amersham). Rates of dAMP incorporation were calculated from % extension of the prime-template which was determined using ImageJ software. Relative rate of ddCMP addition on DNA/DNA and DNA/RNA. 25 nM nucleic acid DNA/DNA or DNA/RNA primer-template (RP559/RP702 or RP559/RP702R) was mixed with 1X reaction buffer (20 mM TrisHCl pH 7.5, 0.01% NP-40, 0.5 mM DTT, 10% glycerol, 0.1 mg/ml BSA, 10 mM MgCl2) in the presence of 250 μM ddCTP at room temp. Next, 2 μM RTx-161 or 2.5% DMSO was added. Reactions were initiated by the addition of 10 nM Polθ-pol. Reaction aliquots were removed and terminated by the addition of 50 mM EDTA at the indicated time points. Radio-labeled DNA was then resolved via denaturing 20% PAGE and visualized by Typhoon PhosphorImager. Percent primer extension by single ddCMP addition at each time point was calculated from % extension of the prime-template which was determined using ImageJ software.
# [2] = tested on: Brca1^CC/CC;Polq^-/- cells; assay: Clonogenic assay; assay type: cell-based, mouse; conditions: for survival relative to 0 uM / survival relative to 0 uM, mean of the four experiments: cc POLQ KO; for survival relative to 0 uM: experiments 2023-04-07 and 2023-04-13; for survival relative to 0 uM, mean of the four experiments: last block without head (mean of 4)
# Protocol: Cells were plated on six or twelve or twenty-four well plates. In six well plate, […], BRCA1 -/-, […]; In twelve well plate, […], BRCA1 -/-, PALB2 mut and 400 cells/ well of wildtype pair was plated; In twenty-four well plate, […], BRCA1 -/-, PALB2 mut and 300 cells/ well of wildtype pair was plated. […] The medium was replaced every 2 days until the colonies were ready for staining in 10–12 days. For staining: Medium was removed from plates, and cells were rinsed with PBS. Fixation was carried out with—Water: Ethanol: Acetic acid (5:4:1) for 30 min followed by staining of colonies with 0.5% crystal violet in Water: Ethanol (3:2) for 2 h at room temperature. The plates were rinsed with water and left for drying overnight at room temperature. Colonies were then counted and IC50 was calculated using results from 3 or more independent experiments. Response curves are shown as mean colony formation +/- S.E.M.
# [3] = Colony survival, ola with or without RTX-161 (source data sheet Fig. 2 c; cell line not given); assay type: cell-based
# T1 sequence (O75417 whole entry): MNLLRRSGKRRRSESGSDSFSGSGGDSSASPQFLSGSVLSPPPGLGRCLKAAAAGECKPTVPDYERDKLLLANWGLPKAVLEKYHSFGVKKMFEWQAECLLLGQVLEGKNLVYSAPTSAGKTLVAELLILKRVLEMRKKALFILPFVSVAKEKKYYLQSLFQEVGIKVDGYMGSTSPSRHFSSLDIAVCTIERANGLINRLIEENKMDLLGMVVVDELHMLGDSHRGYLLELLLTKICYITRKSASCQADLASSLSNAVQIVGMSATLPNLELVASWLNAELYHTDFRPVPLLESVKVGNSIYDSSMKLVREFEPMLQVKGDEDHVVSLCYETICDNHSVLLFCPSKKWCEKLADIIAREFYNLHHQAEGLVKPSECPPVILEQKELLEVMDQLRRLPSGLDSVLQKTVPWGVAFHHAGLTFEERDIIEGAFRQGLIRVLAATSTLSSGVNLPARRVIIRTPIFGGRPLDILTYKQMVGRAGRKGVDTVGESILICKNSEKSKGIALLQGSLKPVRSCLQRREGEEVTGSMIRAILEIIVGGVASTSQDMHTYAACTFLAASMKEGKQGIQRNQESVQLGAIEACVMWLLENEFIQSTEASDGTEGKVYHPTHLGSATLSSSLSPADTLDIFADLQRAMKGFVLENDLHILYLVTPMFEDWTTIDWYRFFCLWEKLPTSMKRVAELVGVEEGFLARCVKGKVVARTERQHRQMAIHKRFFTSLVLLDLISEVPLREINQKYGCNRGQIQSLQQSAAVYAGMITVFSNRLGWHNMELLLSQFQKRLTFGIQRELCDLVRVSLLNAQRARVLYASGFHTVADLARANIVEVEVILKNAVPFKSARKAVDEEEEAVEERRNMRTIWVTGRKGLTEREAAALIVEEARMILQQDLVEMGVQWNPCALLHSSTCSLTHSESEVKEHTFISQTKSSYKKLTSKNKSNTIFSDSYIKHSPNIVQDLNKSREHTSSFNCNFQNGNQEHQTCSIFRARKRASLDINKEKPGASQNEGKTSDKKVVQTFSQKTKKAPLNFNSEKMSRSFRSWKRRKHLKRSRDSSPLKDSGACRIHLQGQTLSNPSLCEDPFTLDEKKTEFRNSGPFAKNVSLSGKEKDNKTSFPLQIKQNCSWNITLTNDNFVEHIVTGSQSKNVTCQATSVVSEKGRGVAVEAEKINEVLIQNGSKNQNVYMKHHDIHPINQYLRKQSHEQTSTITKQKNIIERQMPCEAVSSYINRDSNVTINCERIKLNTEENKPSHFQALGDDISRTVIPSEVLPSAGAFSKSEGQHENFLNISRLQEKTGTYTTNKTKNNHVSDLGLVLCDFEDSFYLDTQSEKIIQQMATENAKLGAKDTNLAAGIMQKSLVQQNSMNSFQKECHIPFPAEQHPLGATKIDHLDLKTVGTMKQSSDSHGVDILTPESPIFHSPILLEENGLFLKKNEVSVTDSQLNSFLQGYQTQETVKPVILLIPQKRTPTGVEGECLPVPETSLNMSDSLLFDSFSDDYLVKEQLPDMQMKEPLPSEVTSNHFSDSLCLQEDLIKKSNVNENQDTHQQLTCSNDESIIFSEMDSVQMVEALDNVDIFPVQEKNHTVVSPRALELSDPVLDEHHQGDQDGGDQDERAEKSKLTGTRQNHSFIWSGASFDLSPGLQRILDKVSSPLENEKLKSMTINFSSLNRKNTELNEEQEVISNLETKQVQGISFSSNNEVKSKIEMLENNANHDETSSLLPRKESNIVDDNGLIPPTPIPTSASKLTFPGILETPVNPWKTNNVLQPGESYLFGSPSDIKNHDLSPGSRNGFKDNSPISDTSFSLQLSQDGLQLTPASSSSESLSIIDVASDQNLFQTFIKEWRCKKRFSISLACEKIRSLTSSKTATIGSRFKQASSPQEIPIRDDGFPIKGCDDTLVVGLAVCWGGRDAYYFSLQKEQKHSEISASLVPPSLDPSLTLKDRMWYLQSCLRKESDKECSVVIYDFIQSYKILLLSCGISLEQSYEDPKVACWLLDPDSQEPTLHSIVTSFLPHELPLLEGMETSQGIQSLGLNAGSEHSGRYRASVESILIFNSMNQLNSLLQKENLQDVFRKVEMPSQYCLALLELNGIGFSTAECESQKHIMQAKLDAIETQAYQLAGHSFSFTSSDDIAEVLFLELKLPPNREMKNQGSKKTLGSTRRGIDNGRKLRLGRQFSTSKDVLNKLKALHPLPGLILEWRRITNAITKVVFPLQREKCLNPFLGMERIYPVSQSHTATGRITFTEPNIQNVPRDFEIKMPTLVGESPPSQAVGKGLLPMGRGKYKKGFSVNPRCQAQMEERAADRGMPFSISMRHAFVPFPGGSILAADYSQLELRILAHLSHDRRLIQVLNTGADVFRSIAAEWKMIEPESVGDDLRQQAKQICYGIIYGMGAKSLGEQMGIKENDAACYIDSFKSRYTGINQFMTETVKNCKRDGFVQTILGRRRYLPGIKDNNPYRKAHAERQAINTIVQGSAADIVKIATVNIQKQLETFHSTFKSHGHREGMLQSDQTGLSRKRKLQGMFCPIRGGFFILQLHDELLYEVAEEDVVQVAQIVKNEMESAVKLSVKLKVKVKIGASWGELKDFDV
smiles,measurement,setting,value
CN(C(=O)Oc1ccc(C(F)(F)F)cc1C(F)(F)F)c1ccc(F)cc1 [MC160385],inhibition of Fl-Polθ DNA synthesis activity,[1],inhibits; also recorded: inhibition
CN(C(=O)Oc1c(N2CCN(CCO)C2=O)cc(C(F)(F)F)cc1C(F)(F)F)c1ccc(F)cc1 [RTx-161],inhibition of single nucleotide incorporation on DNA/DNA,"Polθ-pol on DNA/DNA; 2 μM RTx-161, closed conformation",significant inhibition
same,Average % Extension (Single nt),Polθ-pol on DNA/DNA; Time 0,0.00%
same,% Extension (Single nt),Polθ-pol on DNA/DNA; Time 0,0.00%
same,Average % Extension (Single nt),Polθ-pol on DNA/DNA; Time 0.5,11.29%
same,% Extension (Single nt),Polθ-pol on DNA/DNA; Time 0.5,12.34% and 11.73% and 9.81%
same,Average % Extension (Single nt),Polθ-pol on DNA/DNA; Time 1,18.42%
same,% Extension (Single nt),Polθ-pol on DNA/DNA; Time 1,20.67% and 19.99% and 14.59%
same,Average % Extension (Single nt),Polθ-pol on DNA/DNA; Time 2,25.83%
same,% Extension (Single nt),Polθ-pol on DNA/DNA; Time 2,27.74% and 29.45% and 20.29%
same,survival relative to 0 uM,"[2]; 150 cells/well, RTx-161 1.25 uM",105.26% and 120.00%
same,survival relative to 0 uM,"[2]; 150 cells/well, RTx-161 2.5 uM",73.68% and 115.00%
same,survival relative to 0 uM,"[2]; 150 cells/well, RTx-161 5 uM",89.47% and 105.00%
same,survival relative to 0 uM,"[2]; 150 cells/well, RTx-161 10 uM",94.74% and 95.00%
same,survival relative to 0 uM,"[2]; 150 cells/well, RTx-161 20 uM",73.68% and 90.00%
same,survival relative to 0 uM,"[2]; 300 cells/well, RTx-161 1.25 uM",106.67% and 94.44%
same,survival relative to 0 uM,"[2]; 300 cells/well, RTx-161 2.5 uM",83.33%
same,survival relative to 0 uM,"[2]; 300 cells/well, RTx-161 5 uM",83.33% and 86.11%
same,survival relative to 0 uM,"[2]; 300 cells/well, RTx-161 10 uM",86.67% and 94.44%
same,survival relative to 0 uM,"[2]; 300 cells/well, RTx-161 20 uM",80.00% and 83.33%
same,"survival relative to 0 uM, mean of the four experiments",[2]; RTx-161 1.25 uM,106.59%
same,"survival relative to 0 uM, mean of the four experiments",[2]; RTx-161 2.5 uM,88.84%
same,"survival relative to 0 uM, mean of the four experiments",[2]; RTx-161 5 uM,90.98%
same,"survival relative to 0 uM, mean of the four experiments",[2]; RTx-161 10 uM,92.71%
same,"survival relative to 0 uM, mean of the four experiments",[2]; RTx-161 20 uM,81.75%
same,sensitivity of Brca1^CC/CC;Polq^-/- cells,[2]; compared to Brca1^CC/CC cells,resistant
same,percent suvival,[3]; RTX-161 1 uM + ola 0.125 um,37.2624% and 27.7457% and 32.5843%
same,percent suvival,[3]; RTX-161 1 uM + ola 0.25 um,11.4068% and 11.5607% and 13.4831%
same,percent suvival,"[3]; RTX-161 1 uM, ola 0 um",93.9163% and 101.156% and 103.371%
same,percent suvival,"[3]; RTX-161 2 uM, ola 0 um",93.5361% and 104.624% and 106.742%
